# Data taken from patent US20100035866A1, “NOVEL SUBSTITUTED-1, 1-DIOXO-BENZO[1,2,4]THIADIAZIN-3ONES, PREPARATION METHOD THEREOF, AND PHARMACEUTICAL COMPOSITION CONTAINING THE SAME” (KOREA RESEARCH INSTITUTE OF CHEMICAL TECHNOLOGY, priority 2006, published 2010).
# What was measured:
# 5-HT2a = biological target: T1, 5-HT2a (Homo sapiens, UniProt P28223); test: Radioligand binding, 5-HT receptor family: 5-HT2a ([3H]Ketanserin); conditions: CHO-K1 human recombinant receptor, [3H]Ketanserin 1 nM; read-out: Binding affinity, IC50 (nM), 5-HT2a
# T1 construct: purchased Euroscreen/BioSignal Packard Inc
# hD4.2 receptor = biological target: T2, hD4.2 receptor (Homo sapiens, UniProt P21917, DEL265-296); test: Dopamine receptor family binding: D4 ([3H]YM-09151-2); conditions: [3H]YM-09151-2 0.06 nM; read-out: Binding affinity, IC50 (nM), D4
# T2 construct: purchased BioSignal Packard Inc., Montreal, Canada
# T2 sequence (P21917 with tags, fused parts or gaps DEL265-296): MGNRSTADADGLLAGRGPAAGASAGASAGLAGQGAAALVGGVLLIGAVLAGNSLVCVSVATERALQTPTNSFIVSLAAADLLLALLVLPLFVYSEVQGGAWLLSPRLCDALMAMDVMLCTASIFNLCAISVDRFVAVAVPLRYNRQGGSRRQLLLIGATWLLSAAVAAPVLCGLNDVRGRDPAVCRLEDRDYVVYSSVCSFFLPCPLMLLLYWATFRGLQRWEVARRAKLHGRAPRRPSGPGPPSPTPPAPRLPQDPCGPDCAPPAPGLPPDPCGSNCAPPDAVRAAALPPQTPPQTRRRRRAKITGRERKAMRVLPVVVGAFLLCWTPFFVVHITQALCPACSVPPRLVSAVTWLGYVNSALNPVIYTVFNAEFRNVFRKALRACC
# Protocol: (§1) 2-2: Binding Assays of Dopamine Receptor Family
# (§2) The radioligands used were [^3H]spiperone (for hD2L and hD3 receptors, 1 nM) and [^3H] YM-09151-2 (for hD4.2 receptor, 0.06 nM). Radioligand bindings were performed by the protocols provided by the supplier of receptor membranes (BioSignal Packard Inc., Montreal, Canada). Briefly, the buffer used in D2 or D3 receptor binding assay was 50 mM Tris-HCl (pH 7.4), 10 mM MgCl2, 1 mM EDTA, or 50 mM Tris-HCl (pH 7.4), 5 mM MgCl2 5 mM EDTA, 5 mM KCl, 1.5 mM CaCl2, 120 mM NaCl, respectively. In [^3H] YM-09151-2 receptor binding assays, the buffer containing 50 mM Tris-HCl (pH 7.4), 5 mM MgCl2, 5 mM EDTA, 5 mM KCl and 1.5 mM CaCl2 was used. […] Competition binding studies were carried out with 7-8 concentrations of the test compound run in duplicate tubes, and isotherms from three assays were calculated by computerized nonlinear regression analysis (GraphPad Prism Program, San Diego, […]) to yield median inhibitory concentration (IC50) values.
# rats [1] = test: Apomorphine-induced disruption of prepulse inhibition (PPI) of acoustic startle; conditions: for reversal of disruption of PPI by apomorphine: pretreatment i.p. 30 min before apomorphine 2 mg/kg
# 5-HT1a = biological target: T3, 5-HT1a (Homo sapiens, UniProt P08908); test: Radioligand binding, 5-HT receptor family: 5-HT1a ([3H]8-OH-DPAT); conditions: CHO-K1 human recombinant receptor, [3H]8-OH-DPAT 0.5 nM; read-out: Binding affinity, IC50 (nM), 5-HT1a
# T3 construct: purchased Euroscreen/BioSignal Packard Inc
# T3 sequence (P08908 1-422): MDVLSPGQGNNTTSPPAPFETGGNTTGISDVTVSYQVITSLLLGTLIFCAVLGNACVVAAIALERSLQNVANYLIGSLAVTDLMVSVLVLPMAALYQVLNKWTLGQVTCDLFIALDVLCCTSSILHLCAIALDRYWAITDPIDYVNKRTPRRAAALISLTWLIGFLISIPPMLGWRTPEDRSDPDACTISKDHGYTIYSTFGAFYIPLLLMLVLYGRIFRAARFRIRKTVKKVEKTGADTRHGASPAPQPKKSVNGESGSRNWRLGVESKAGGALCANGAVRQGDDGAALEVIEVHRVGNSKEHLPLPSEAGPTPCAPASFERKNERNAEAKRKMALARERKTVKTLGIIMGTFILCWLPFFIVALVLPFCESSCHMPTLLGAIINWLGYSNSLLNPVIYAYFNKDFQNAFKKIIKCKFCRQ
# mice = test: Rotarod deficit; conditions: mouse, in vivo
# Protocol: The mouse was placed on a 1 inch diameter knurled plastic rod rotating at 6 rpm (Ugo-Basile, Milano, Italy), and the rotarod deficit (%) was obtained by counting the number of animals fallen from the rotating rod within 1 min (Dunham et al., 1957) at 30, 60, 90 and 120 min after the injection of test compound.
# 5-HT7 = biological target: T4, 5-HT7 (Homo sapiens, UniProt P34969); test: Radioligand binding, 5-HT receptor family: 5-HT7 ([3H]LSD); conditions: CHO-K1 human recombinant receptor, [3H]LSD 3 nM; read-out: Binding affinity, IC50 (nM), 5-HT7
# T4 construct: purchased Euroscreen/BioSignal Packard Inc
# Protocol: Radioligand bindings were performed according to the test method provided by the supplier of receptor membrane (Euroscreen/BioSignal Packard Inc.). The detailed assay conditions and the results were shown in the following Table 3 and Table 4, respectively.
# hD2L receptor = biological target: T5, hD2L receptor (Homo sapiens, UniProt P14416); test: Dopamine receptor family binding: D2 ([3H]spiperone); conditions: [3H]spiperone 1 nM; read-out: Binding affinity, IC50 (nM), D2
# T5 construct: purchased BioSignal Packard Inc., Montreal, Canada
# Protocol: as §1, §2
# D1 = D1 (Homo sapiens, UniProt P21728); test: Dopamine receptor family binding: D1; conditions: read-out: Binding affinity, IC50 (nM), D1
# hD3 receptor = biological target: T6, hD3 receptor (Homo sapiens, UniProt P35462); test: Dopamine receptor family binding: D3 ([3H]spiperone); conditions: [3H]spiperone 1 nM; read-out: Binding affinity, IC50 (nM), D3
# T6 construct: purchased BioSignal Packard Inc., Montreal, Canada
# 5-HT2c = biological target: T7, 5-HT2c (Homo sapiens, UniProt P28335); test: Radioligand binding, 5-HT receptor family: 5-HT2c ([3H]Mesulergine); conditions: CHO-K1 human recombinant receptor, [3H]Mesulergine 1 nM; read-out: Binding affinity, IC50 (nM), 5-HT2c
# T7 construct: purchased Euroscreen/BioSignal Packard Inc
# T7 sequence (P28335 33-458): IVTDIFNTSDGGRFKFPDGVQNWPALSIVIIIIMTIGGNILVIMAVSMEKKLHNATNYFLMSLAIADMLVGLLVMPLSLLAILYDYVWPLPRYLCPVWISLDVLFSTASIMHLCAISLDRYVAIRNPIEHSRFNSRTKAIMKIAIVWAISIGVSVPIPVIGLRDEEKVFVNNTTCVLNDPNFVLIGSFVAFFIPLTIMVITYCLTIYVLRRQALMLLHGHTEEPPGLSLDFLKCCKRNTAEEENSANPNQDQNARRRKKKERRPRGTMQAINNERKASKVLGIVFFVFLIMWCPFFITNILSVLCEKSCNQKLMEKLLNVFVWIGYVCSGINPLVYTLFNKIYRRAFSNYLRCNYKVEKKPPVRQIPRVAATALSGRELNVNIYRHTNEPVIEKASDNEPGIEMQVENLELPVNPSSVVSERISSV
# [2] = biological target: Human serotonin 5-HT6 receptor (Homo sapiens, UniProt P50406); test: [3H]LSD binding assay on cloned 5-HT6 receptor; conditions: IC50 (nM)
# 5-HT6 receptors [3] = biological target: T8, 5-HT6 receptors (Homo sapiens, UniProt P50406); conditions: human 5-HT6 receptors, Glennon et al.; cited from earlier work
# rats [4] = conditions: cited from earlier work
# rat = conditions: cited from earlier work; for anticonvulsant activity: earlier finding
# rats [5] = conditions: cited from earlier work; remark: listed apart in the source
# [6] = frontal cortex and dorsal hippocampus; cited from earlier work
# [7] = background art; cited from earlier work
# 5-HT6 receptors [8] = biological target: T8, 5-HT6 receptors; conditions: antipsychotics, Roth et al. 1994; cited from earlier work
# [9] = Binding affinity, 5-HT6, Table 4
# [10] = binding affinity to the 5-HT6 receptor, Table 2, 1.87 nM [3H]LSD, cloned human receptor membranes from Sf21 cells, 37° C. 60 min
# Chain of Human serotonin 5-HT6 receptor (P50406 whole entry): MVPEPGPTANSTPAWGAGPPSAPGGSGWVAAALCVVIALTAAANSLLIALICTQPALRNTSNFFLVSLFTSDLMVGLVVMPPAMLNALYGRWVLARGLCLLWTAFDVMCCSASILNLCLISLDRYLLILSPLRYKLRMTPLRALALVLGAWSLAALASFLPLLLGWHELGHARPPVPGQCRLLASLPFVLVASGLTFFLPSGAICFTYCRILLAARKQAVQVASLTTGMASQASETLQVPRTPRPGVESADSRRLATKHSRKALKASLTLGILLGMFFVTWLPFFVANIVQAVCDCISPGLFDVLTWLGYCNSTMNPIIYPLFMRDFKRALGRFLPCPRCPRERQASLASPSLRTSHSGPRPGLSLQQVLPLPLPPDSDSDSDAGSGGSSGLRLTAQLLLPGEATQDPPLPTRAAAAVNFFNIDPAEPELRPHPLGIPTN
# T8 sequence (P50406 whole entry): as above
# T4 sequence (P34969 whole entry): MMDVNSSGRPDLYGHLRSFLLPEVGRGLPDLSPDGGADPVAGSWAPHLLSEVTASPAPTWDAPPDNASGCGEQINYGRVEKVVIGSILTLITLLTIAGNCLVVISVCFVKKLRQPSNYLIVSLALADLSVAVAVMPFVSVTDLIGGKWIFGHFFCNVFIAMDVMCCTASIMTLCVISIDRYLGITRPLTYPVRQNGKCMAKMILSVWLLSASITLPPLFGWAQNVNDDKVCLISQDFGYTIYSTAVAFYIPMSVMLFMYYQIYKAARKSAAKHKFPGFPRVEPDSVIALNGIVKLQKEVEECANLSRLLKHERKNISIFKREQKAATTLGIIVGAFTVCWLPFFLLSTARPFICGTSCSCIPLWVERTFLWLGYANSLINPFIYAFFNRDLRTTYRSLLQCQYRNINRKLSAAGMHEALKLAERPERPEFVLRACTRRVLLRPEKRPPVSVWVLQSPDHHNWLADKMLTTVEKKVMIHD
# T5 sequence (P14416 whole entry): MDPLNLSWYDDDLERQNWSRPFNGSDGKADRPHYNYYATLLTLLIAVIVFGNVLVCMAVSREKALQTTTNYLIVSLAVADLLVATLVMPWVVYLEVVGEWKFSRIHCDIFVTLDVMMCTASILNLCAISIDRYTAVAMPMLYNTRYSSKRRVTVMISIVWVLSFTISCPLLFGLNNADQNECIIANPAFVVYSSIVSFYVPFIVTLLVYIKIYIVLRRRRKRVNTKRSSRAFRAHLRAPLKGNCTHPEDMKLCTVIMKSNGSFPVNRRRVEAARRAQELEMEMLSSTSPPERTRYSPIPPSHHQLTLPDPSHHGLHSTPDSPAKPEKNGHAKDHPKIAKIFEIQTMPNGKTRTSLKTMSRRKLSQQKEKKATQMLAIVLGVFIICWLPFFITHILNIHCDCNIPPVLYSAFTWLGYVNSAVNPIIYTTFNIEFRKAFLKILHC
# T6 sequence (P35462 whole entry): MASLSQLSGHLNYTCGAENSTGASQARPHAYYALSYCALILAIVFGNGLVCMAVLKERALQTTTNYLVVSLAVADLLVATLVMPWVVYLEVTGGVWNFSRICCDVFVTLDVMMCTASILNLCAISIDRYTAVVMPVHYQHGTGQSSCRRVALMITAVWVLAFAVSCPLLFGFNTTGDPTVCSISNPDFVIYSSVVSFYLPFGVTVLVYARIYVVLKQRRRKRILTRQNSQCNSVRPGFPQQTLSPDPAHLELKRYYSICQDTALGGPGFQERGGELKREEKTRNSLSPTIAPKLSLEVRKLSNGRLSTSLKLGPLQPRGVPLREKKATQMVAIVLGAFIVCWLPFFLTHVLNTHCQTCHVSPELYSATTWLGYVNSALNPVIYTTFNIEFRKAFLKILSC
# Chain of D1 (P21728 whole entry): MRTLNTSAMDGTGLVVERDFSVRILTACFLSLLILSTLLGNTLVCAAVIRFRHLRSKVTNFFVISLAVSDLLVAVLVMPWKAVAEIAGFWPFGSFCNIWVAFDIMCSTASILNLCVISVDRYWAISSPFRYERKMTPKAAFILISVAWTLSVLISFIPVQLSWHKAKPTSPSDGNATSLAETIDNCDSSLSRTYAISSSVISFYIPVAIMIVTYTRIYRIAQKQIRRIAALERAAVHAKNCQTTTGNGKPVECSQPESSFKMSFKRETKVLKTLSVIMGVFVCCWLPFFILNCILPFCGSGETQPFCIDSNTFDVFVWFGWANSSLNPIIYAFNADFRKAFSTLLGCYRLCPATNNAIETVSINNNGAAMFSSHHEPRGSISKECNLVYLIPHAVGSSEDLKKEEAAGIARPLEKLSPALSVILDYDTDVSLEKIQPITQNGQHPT
# T1 sequence (P28223 whole entry): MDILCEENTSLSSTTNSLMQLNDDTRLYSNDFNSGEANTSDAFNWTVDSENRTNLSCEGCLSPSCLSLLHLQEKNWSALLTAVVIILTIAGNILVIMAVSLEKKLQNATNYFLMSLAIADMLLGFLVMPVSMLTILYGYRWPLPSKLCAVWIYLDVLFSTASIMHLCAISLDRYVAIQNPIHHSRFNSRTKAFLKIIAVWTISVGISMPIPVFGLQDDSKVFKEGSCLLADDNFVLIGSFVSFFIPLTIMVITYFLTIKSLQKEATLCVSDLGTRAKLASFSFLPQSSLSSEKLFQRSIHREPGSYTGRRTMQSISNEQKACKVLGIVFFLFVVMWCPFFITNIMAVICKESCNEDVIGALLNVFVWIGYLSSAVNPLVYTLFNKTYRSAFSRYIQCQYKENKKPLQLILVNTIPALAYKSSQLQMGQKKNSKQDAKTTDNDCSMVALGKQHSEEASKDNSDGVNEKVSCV
smiles,measurement,setting,value
"CN1CCN(c2cc(Cl)cc3c2S(=O)(=O)N(Cc2ccccc2)C(=O)N3Cc2ccccc2)CC1 [Example 1, 2,4-Dibenzyl-6-chloro-8-(4-methyl-piperazin-1-yl)-1,1-dioxo-1,4-dihydro-2H-1λ^6-benzo[1,2,4]thiadiazin-3-one]",IC50,5-HT2a,354 nM
same,IC50,hD4.2 receptor,> 10000 nM
same,effect on PPI of compound alone vs vehicle control,"rats [1]; rats, 2.5, 5, 10 & 20 mg/kg, i.p., without apomorphine",no significant effect
same,mean startle amplitude vs apomorphine control group,"rats [1]; rats, administered 30 min before apomorphine",no significant differences
same,reversal of disruption of PPI by apomorphine,"rats [1]; rats, i.p.",reversed significantly
same,IC50,5-HT1a,997 nM
same,rotarod ataxia / rotarod deficit (in words),mice,did not show any rotarod ataxia
same,"median neurotoxic dose (TD50), rotarod",mice; ip,more than 300 □/□
same,IC50,5-HT7,6580 nM
same,IC50,hD2L receptor,5810 nM
same,IC50,D1,3050 nM
same,IC50,hD3 receptor,633 nM
same,IC50,5-HT2c,785 nM
same,IC50,[2]; [9],1.9 nM
same,IC50,[2]; [10],1.9 nM
same,melting point,,100 to 101 °C
"Cc1cc(C)cc(CCCN2C(=O)N(Cc3ccccc3)c3cc(Cl)cc(N4CCNCC4)c3S2(=O)=O)c1 [Example 66, 4-Benzyl-6-chloro-2-[3-(3,5-dimethyl-phenyl)-propyl]-1,1-dioxo-8-piperazin-1-yl-1,4-dihydro-2H-1λ^6-benzo[1,2,4]thiadiazin-3-one]",IC50,5-HT2a,710 nM
same,IC50,hD4.2 receptor,> 10000 nM
same,IC50,5-HT1a,1840 nM
same,IC50,5-HT7,4530 nM
same,IC50,hD2L receptor,1640 nM
same,IC50,D1,1180 nM
same,IC50,hD3 receptor,488 nM
same,IC50,5-HT2c,498 nM
same,IC50,[2]; [9],3.8 nM
same,IC50,[2]; [10],3.8 nM
same,melting point,,226 to 228 °C
COc1ccc2c(c1)c(CCN(C)C)cn2S(=O)(=O)c1ccccc1 [MS-245],"pA2, antagonist",5-HT6 receptors [3],8.88
CNc1cc(NS(=O)(=O)c2ccc(N)cc2)nc(NC)n1 [Ro 04-6790],food intake,rats [4],decreased food intake
same,anticonvulsant activity,rat,possess anticonvulsant activity
"COc1ccc(NS(=O)(=O)c2sc3ccc(Cl)cc3c2C)cc1N1CCNCC1 [SB-271046, reference compound]",retention of a previously learned task in water maze,rats [5],significant improvement
same,extracellular glutamate levels,[6],increased extracellular glutamate levels in frontal cortex and dorsal hippocampus by several fold
same,anticonvulsant activity,rat,possess anticonvulsant activity
same,reversal of disruption of PPI by apomorphine,"rats [1]; rats, i.p.",did not reverse
COc1ccc(S(=O)(=O)Nc2cc(Br)cc(F)c2Br)cc1N1CCNCC1 [SB-357134],retention of a previously learned task in water maze,rats [5],significant improvement
same,seizure threshold (rat maximal electroseizure threshold),rat; oral administration,potent and dose-dependent increase
same,bioavailability (in words),[7],excellent oral bioavailability
same,blood clearance (in words),[7],low clearance rate
CN(C)CCCN1c2ccccc2Sc2ccc(Cl)cc21 [chlorpromazine],binding affinity at 5-HT6 receptors (in words),5-HT6 receptors [8],high affinity
CN(C)CC/C=C1/c2ccccc2Sc2ccc(Cl)cc21 [chlorprothixene],binding affinity at 5-HT6 receptors (in words),5-HT6 receptors [8],high affinity
